Test results taken from article PMC13181761, “New Analogs of the Compstatin Family of Clinical Complement Inhibitors with Low Picomolar Target Affinity” (Journal of Medicinal Chemistry, 2026).
Where “and” joins values, the source holds several entries; their conditions need not be identical. Identical values can stand only once. Like-named read-outs stand apart in the source and are kept apart here. Values belong to the compound of their own block, whether it stands above or below them. Where a SMILES comes first, the peptide text is derived from it. Bridges are numbered along the chain shown (N, C = ends). [ ]: non-standard residue; d: D form. Trp(1-Me) = Cn1cc(C[C@H](N)C(=O)O)c2ccccc21; NMeI = CC[C@H](C)[C@H](NC)C(=O)O; Sar = CNCC(=O)O

Experiments:
[1] = system: alternative pathway complement activation; assay: Alternative pathway (AP) complement activation ELISA in normal human serum; format: biochemical; details: diluted human serum (figure legends 1%; method 10% NHS)
Protocol: The inhibitory activity of selected peptides in preventing pathway-specific complement activation was evaluated using ELISA as previously described. All assays used normal human serum (NHS), pooled from five unrelated, anonymized healthy donors, obtained with informed consent according to the local ethics committee, and following the guidelines of the Declaration of Helsinki (Blutspendezentrum Basel, Switzerland).
The activity of selected peptides in preventing the activation of the alternative pathway was evaluated by analogy to the classical pathway ELISA described above, with some adjustments. Flat-bottom PolySorb 96-well plates (Thermo Fisher) were coated overnight at room temperature with 40 μg/mL lipopolysaccharide from Salmonella enteritidis (Sigma-Aldrich) in 0.1 M sodium carbonate buffer and washed 5 times with PBS-T. Serial dilutions of peptides were prepared in 10% (v/v) pooled NHS using HBBT + assay buffer (10 mM HEPES, 150 mM NaCl, pH 7.4, 0.5% BSA, 5 mM EGTA, 5 mM MgCl2, and 0.1% Tween-20), with samples diluted in 10% (v/v) NHS. Negative controls included each inhibitor in assay buffer alone, assay buffer only, and 10% (v/v) serum with 10 mM EDTA. HBBT+ with 10% (v/v) pooled NHS served as the 100%-control. Subsequent steps were performed as described above.

[2] = system: classical pathway complement activation; assay: Classical pathway (CP) complement activation ELISA in normal human serum; format: biochemical
Protocol: The inhibitory activity of selected peptides in preventing pathway-specific complement activation was evaluated using ELISA as previously described. All assays used normal human serum (NHS), pooled from five unrelated, anonymized healthy donors, obtained with informed consent according to the local ethics committee, and following the guidelines of the Declaration of Helsinki (Blutspendezentrum Basel, Switzerland). To assess classical pathway activity, flat-bottom MaxiSorp 96-well plates (Thermo Fisher) were coated overnight at room temperature with 33 μg/mL IgM (Sigma) in a 0.1 M sodium carbonate buffer. Plates were washed 5 times with phosphate-buffered saline (Dubleccòs, Bioconcept) supplemented with 0.05% Tween-20 (PBS-T). Serial dilutions of peptides were prepared in 1% (v/v) NHS using HBBT++ assay buffer (10 mM HEPES, 150 mM NaCl, pH 7.4, 0.5% BSA, 0.15 mM CaCl2, 0.5 mM MgCl2, 0.1% Tween-20), with samples diluted in 1% (v/v) NHS. Negative controls included each inhibitor in assay buffer alone, assay buffer only, and 1% (v/v) NHS with 10 mM EDTA. HBBT++ with 1% (v/v) pooled NHS served as the 100%-control. After incubating for 1 h at 37 °C and shaking at 700 rpm, plates were washed 5 times with PBS-T. Next, 100 μL of biotinylated monoclonal mouse antihuman TCC antibody (1:1000, Hycult, clone: aE11) to detect terminal complement complexes was added to each well, followed by 1 h incubation at room temperature while shaking. After another 5 washes with PBS-T, 100 μL of HRP-conjugated NeutrAvidin (1:10,000, Invitrogen) was added to each well and incubated for 20 min at room temperature while shaking. Plates were washed 5 more times with PBS-T before adding 100 μL of 1-Step Turbo TMB-ELISA solution (Thermo Scientific) to each well. The reaction was allowed to develop until a light blue color appeared, and then stopped with 100 μL of 2 M sulfuric acid. Colorimetric detection was performed at 450 nm by using a plate reader (Synergy HT, Biotek). All assays were conducted in triplicate and normalized against 100% (no inhibitor, 1% (v/v) serum in buffer) and 0% (1% (v/v) serum in EDTA buffer) controls. In the cases of Cp60 and Cp40, 5% (v/v) NHS was used instead of 1% (v/v) NHS in some assays. Inhibition curves were fitted using nonlinear regression to a normalized variable slope model in Prism (v9-10, GraphPad).

human C3b [3] = molecular target: T1, human C3b (Homo sapiens, UniProt P01024); assay: SPR kinetic binding to immobilized human C3b; details: for k a, affinity hC3b / k d, affinity hC3b / Kd: 1:1 Langmuir fit, average of 3 independent experiments, SD in brackets; for Kd: read-out: K D, affinity hC3b
T1 construct: purchased Complement Technology, Tyler, TX, USA
T1 sequence (P01024 23-667 limits assumed): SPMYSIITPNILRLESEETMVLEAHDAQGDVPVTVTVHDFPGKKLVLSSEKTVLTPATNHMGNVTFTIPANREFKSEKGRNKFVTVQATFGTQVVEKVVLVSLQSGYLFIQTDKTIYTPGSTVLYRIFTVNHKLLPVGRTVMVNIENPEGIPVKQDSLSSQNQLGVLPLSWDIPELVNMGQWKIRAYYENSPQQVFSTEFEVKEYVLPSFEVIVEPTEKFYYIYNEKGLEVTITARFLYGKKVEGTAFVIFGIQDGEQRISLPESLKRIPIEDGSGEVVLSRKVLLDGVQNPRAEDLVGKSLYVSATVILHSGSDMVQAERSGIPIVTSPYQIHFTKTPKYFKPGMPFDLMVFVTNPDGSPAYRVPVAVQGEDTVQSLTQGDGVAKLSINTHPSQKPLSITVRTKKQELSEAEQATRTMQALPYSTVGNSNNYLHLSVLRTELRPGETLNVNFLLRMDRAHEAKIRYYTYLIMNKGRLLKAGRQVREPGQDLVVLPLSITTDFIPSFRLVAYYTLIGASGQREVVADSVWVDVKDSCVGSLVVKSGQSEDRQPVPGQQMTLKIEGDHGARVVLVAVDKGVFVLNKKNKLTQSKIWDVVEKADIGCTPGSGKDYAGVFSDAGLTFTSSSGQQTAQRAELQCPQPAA
T1 sequence (P01024 749-1663 partner limits assumed): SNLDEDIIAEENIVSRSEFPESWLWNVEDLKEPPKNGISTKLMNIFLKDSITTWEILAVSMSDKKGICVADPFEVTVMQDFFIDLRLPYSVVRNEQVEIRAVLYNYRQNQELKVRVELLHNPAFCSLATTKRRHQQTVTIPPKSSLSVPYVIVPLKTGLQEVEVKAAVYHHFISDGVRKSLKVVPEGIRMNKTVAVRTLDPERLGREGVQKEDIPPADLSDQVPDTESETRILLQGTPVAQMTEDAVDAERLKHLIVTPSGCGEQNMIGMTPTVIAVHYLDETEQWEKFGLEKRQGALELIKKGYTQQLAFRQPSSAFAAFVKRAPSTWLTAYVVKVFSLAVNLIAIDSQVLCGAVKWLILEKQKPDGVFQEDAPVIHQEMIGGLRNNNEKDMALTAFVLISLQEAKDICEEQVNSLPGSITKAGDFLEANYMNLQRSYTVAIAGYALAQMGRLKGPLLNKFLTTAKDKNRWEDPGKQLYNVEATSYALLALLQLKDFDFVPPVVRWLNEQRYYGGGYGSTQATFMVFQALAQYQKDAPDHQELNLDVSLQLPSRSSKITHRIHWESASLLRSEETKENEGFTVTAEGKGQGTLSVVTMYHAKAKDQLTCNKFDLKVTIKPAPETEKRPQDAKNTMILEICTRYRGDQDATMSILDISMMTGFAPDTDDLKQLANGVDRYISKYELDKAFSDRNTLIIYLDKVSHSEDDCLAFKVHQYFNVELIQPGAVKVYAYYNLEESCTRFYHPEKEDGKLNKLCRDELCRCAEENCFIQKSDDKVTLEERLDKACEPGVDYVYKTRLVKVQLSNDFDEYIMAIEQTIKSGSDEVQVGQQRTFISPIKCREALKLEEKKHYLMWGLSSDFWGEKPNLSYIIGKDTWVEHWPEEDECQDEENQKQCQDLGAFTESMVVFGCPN
Protocol: Experiments were conducted at 25 °C in HBST buffer (10 mM HEPES, 150 mM NaCl, and 0.05% Tween-20, pH 7.4; XanTec bioanalytics). Human C3b (Complement Technology, Tyler, TX, USA) was immobilized via amine-reactive coupling. […] Individual peptide samples were injected for 120 s, followed by a 180 s dissociation phase. […] Signals from the reference cell and buffer blank injections were subtracted within each dilution series to correct for buffer effects and injection artifacts. Data were fitted to a Langmuir 1:1 binding model to calculate association (k a) and dissociation (k d) rate constants, and the equilibration constant K D is calculated based on the equation: K D = k d/k a. In the case of Cp40 derivatives and Cp60, a single-cycle approach was used for kinetic analysis by injecting 5 increasing concentrations of each compound (0.5-40 nM) consecutively without a regeneration period in between injections. Individual injections within a cycle were 120 s long with a 5 min dissociation phase between injections. […] Analog Cp40 was included in each experimental series as a reference and internal control. Signals from the reference cell and buffer blank injections were subtracted to correct for buffer effects and injection artifacts. Kinetic data were processed in BiaEvaluation (Cytiva) using single-cycle evaluation by global fitting each data set to a Langmuir 1:1 binding model. The reported kinetic parameters (Tables and ) indicate the mean values and standard deviations of three independent experiments. SPR sensorgrams are provided in the Supporting Information.

human C3b [4] = molecular target: T1, human C3b; assay: SPR kinetic binding to immobilized human C3b; details: K D determined as steady state affinity, read-out: K D, affinity hC3b, steady state affinity
[5] = first-in-human trials, cited from earlier work
[6] = cynomolgus monkey, in vivo, sc, 2 mg/kg
[7] = cynomolgus monkey, in vivo, 2 mg/kg

Structure (SMILES): CC[C@H](C)[C@H](NC(C)=O)C(=O)N[C@H]1CSSC[C@@H](C(=O)N[C@H](C(N)=O)[C@@H](C)O)NC(=O)[C@H](CCCN=C(N)N)NC(=O)[C@H](Cc2c[nH]cn2)NC(=O)[C@H](C)NC(=O)CNC(=O)[C@H](Cc2c[nH]c3ccccc23)NC(=O)[C@H](CC(=O)O)NC(=O)[C@H](CCC(N)=O)NC(=O)[C@H](Cc2c[nH]c3ccccc23)NC(=O)[C@H](C(C)C)NC1=O [Cp01, reference compound]
IC50 [1]: 1400 nM
IC50 ([2]; CP ELISA, 1% diluted normal human serum): 20000 nM

fold improvement in affinity compared with Cp01 (human C3b [3]; K D ratio vs Cp01): ~10 fold
k a, affinity hC3b (human C3b [3]; SPR): 8.8(0.1) 10^5 M^–1 s^–1
k d, affinity hC3b (human C3b [3]; SPR): 1.7(0.1) 10^–2 s^–1
Kd (human C3b [3]; SPR): 20 nM and 19.8 nM
Structure (SMILES): CC[C@H](C)[C@H](NC(C)=O)C(=O)N[C@H]1CSSC[C@@H](C(=O)N[C@H](C(N)=O)[C@@H](C)O)NC(=O)[C@H](CCCNC(=N)N)NC(=O)[C@H](Cc2c[nH]cn2)NC(=O)[C@H](C)NC(=O)CNC(=O)[C@H](Cc2c[nH]c3ccccc23)NC(=O)[C@H](CC(=O)O)NC(=O)[C@H](CCC(N)=O)NC(=O)[C@H](Cc2c[nH]c3ccccc23)NC(=O)[C@H]([C@@H](C)CC)NC1=O [Cp01-Val3Ile] (Ac-ICIWQDWGAHRCT-NH2; disulfide 2-12)
IC50 [1]: 200 nM
IC50 ([2]; CP ELISA, 1% diluted normal human serum, listed as Cp01-V3I): 430 nM
fold enhanced potency for inhibiting complement activation in vitro vs Cp01 ([2]; IC50 ratio vs Cp01): up to 40 fold

Kd (human C3b [4]): 545 nM
Structure (SMILES): CC[C@@H](C)[C@@H]1NC(=O)[C@@H](NC(=O)[C@@H](NC(C)=O)[C@@H](C)CC)CSSC[C@@H](C(=O)N[C@H](C(N)=O)[C@@H](C)O)NC(=O)[C@H](CCCNC(=N)N)NC(=O)[C@H](Cc2c[nH]cn2)NC(=O)[C@H](C)NC(=O)CNC(=O)[C@H](Cc2c[nH]c3ccccc23)NC(=O)[C@H](CC(=O)O)NC(=O)[C@H](CCC(N)=O)NC(=O)[C@H](Cc2c[nH]c3ccccc23)NC1=O [Cp01-Val3aIle]

k a, affinity hC3b (human C3b [3]; SPR): 17.6(0.3) 10^5 M^–1 s^–1
k d, affinity hC3b (human C3b [3]; SPR): 0.1 10^–2 s^–1
k d, affinity hC3b (human C3b [3]; SPR, listed as Cp40 Val): 0.1(0.0) 10^–2 s^–1
Kd (human C3b [3]; SPR): 0.7 nM
Structure (SMILES): CC[C@H](C)[C@H](NC(=O)[C@H](N)Cc1ccc(O)cc1)C(=O)N[C@H]1CSSC[C@@H](C(=O)N(C)[C@H](C(N)=O)[C@@H](C)CC)NC(=O)[C@H](CCCNC(=N)N)NC(=O)[C@H](Cc2c[nH]cn2)NC(=O)[C@H](C)NC(=O)CN(C)C(=O)[C@H](Cc2c[nH]c3ccccc23)NC(=O)[C@H](CC(=O)O)NC(=O)[C@H](CCC(N)=O)NC(=O)[C@H](Cc2cn(C)c3ccccc23)NC(=O)[C@H](C(C)C)NC1=O [Cp40, reference compound]
immunogenicity [5]: no evidence of drug-related immunogenicity or increase in antidrug antibodies
safety profile ([5]; single and multiple doses via different routes): good safety profile
IC50 ([2]; CP ELISA, 5% human serum): 158 nM

AUC0-120h [6]: 401 µM·h
AUC0-∞ [6]: 250 µM·h
AUC(0-t) ([7]; AUC0–120h, range over both animals): 230 to 400 µM·h
Tmax ([7]; sc): 2 h
AUC(0-t) ([7]; sc, AUC0-120h): 228 µM·h
AUC(0-inf) ([7]; sc, AUC0-∞): 479 µM·h
Cmax ([7]; sc, Cmax): 7.52 µM
half-life ([7]; sc, t 1/2, terminal elimination phase, range over both animals): 30 to 40 h
half-life ([7]; sc, t½): 30.8 h
Structure (SMILES): CC[C@H](C)[C@H](NC(=O)[C@H](N)Cc1ccc(O)cc1)C(=O)N[C@H]1CSSC[C@@H](C(=O)N(C)[C@H](C(=O)N[C@@H](CCCCN)C(=O)N[C@@H](CCCCN)C(N)=O)[C@@H](C)CC)NC(=O)[C@H](CCCNC(=N)N)NC(=O)[C@H](Cc2c[nH]cn2)NC(=O)[C@H](C)NC(=O)CN(C)C(=O)[C@H](Cc2c[nH]c3ccccc23)NC(=O)[C@H](CC(=O)O)NC(=O)[C@H](CCC(N)=O)NC(=O)[C@H](Cc2cn(C)c3ccccc23)NC(=O)[C@H]([C@@H](C)CC)NC1=O [Cp60-KK] (H-[dY]ICI[Trp(1-Me)]QDW[Sar]AHRC[NMeI]KK-NH2; disulfide 3-13)

fold enhancement in binding affinity of Cp60 over Cp40 (human C3b [3]; K D ratio vs Cp40): > 8 fold and 10 fold
k a, affinity hC3b (human C3b [3]; SPR): 17.6(1.4) 10^5 M^–1 s^–1
k d, affinity hC3b (human C3b [3]; SPR): 0.01 10^–2 s^–1
k d, affinity hC3b (human C3b [3]; SPR, listed as Cp40 Ile): 0.01(0.0) 10^–2 s^–1
target residence (τ) (human C3b [3]; SPR, C3b): exceeding 100 min
koff (human C3b [3]; SPR, read-out: dissociation rate k d): 0.0001 s⁻¹
Structure (SMILES): CC[C@H](C)[C@H](NC(=O)[C@H](N)Cc1ccc(O)cc1)C(=O)N[C@H]1CSSC[C@@H](C(=O)N(C)[C@H](C(N)=O)[C@@H](C)CC)NC(=O)[C@H](CCCNC(=N)N)NC(=O)[C@H](Cc2c[nH]cn2)NC(=O)[C@H](C)NC(=O)CN(C)C(=O)[C@H](Cc2c[nH]c3ccccc23)NC(=O)[C@H](CC(=O)O)NC(=O)[C@H](CCC(N)=O)NC(=O)[C@H](Cc2cn(C)c3ccccc23)NC(=O)[C@H]([C@@H](C)CC)NC1=O [Cp60] (H-[dY]ICI[Trp(1-Me)]QDW[Sar]AHRC[NMeI]-NH2; disulfide 3-13)
CP inhibition compared with Cp40 ([2]; CP ELISA, 1% human serum): did not show improved CP inhibition
IC50 ([2]; CP ELISA, 5% human serum): 97 nM
fold enhancement in inhibitory potency of Cp60 over Cp40 ([2]; IC50 ratio vs Cp40): < 2 fold
